Common to all, as to assay type: functional
In one experiment the test system is SF-268. Briefly: Cytotoxicity against human SF268 cells assessed as growth at 100 uM after 48 hrs by SRB protein assay relative to control. The settings on record: SF-268, 48 h, read-out: Activity.
The subject of the next experiment is MCF7. Briefly: Cytotoxicity against human MCF7 cells assessed as growth at 100 uM after 48 hrs by SRB protein assay relative to control. The settings on record: MCF7, 48 h, read-out: Activity.
The next experiment deals with NCI-H460. Briefly: Cytotoxicity against human […] cells assessed as growth at 100 uM after 48 hrs by SRB protein assay relative to control. The settings on record: NCI-H460, 48 h, read-out: Activity.

Structures are written as SMILES.

For the molecule `COc1ccc(/C=N/NC(=O)Cc2csc3nc(-c4ccc(Br)cc4)cn23)cc1`, the growth at 100 µM in the experiment with SF-268 worked out at 56%; in the experiment with MCF7 it was 46%; in the experiment on NCI-H460, 34%.
The like results for `CN(C)c1ccc(/C=N/NC(=O)Cc2csc3nc(-c4ccc(Br)cc4)cn23)cc1` were, in that order, 77%, 82% and 69%.
The like results for `O=C(Cc1csc2nc(-c3ccc(Br)cc3)cn12)N/N=C/c1ccc(F)cc1` were, in that order, 84%, 71% and 35%.
The like results for `O=C(Cc1csc2nc(-c3ccc(Br)cc3)cn12)N/N=C/c1ccc(Br)cc1` were, in that order, 107%, 56% and 75%.

The record behind these values is ChEMBL document CHEMBL1143799, “Synthesis and primary cytotoxicity evaluation of new imidazo[2,1-b]thiazole derivatives” (2007).
